Assay results taken from PubChem BioAssay (NCI).
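Method: 48-hour compound exposure of cells in 96-well plates, five concentrations, linear interpolation of endpoints. Here, GI50 denotes the concentration required for 50% inhibition of growth. TGI marks complete inhibition of growth.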

What was measured:
Experiment in all cases: DTP human tumour cell line panel, 48 h
A549 NSCLC = system: A549 NSCLC
COLO 205 colon = system: COLO 205 colon
HOP-92 NSCLC = system: HOP-92 NSCLC
K-562 leukemia = system: K-562 leukemia
NCI-H23 lung = system: NCI-H23 lung
OVCAR-8 ovarian = system: OVCAR-8 ovarian
HL-60(TB) leukemia = system: HL-60(TB) leukemia
UACC-257 melanoma = system: UACC-257 melanoma
PC-3 prostate = system: PC-3 prostate

| Compound | TGI (A549 NSCLC) | TGI (COLO 205 colon) | TGI (HOP-92 NSCLC) | TGI (K-562 leukemia) | TGI (NCI-H23 lung) | TGI (OVCAR-8 ovarian) | GI50 (A549 NSCLC) | GI50 (COLO 205 colon) | GI50 (HL-60(TB) leukemia) | TGI (HL-60(TB) leukemia) | GI50 (HOP-92 NSCLC) | GI50 (K-562 leukemia) | GI50 (NCI-H23 lung) | GI50 (OVCAR-8 ovarian) | GI50 (UACC-257 melanoma) | TGI (UACC-257 melanoma) | GI50 (PC-3 prostate) | TGI (PC-3 prostate) |
| --- | --- | --- | --- | --- | --- | --- | --- | --- | --- | --- | --- | --- | --- | --- | --- | --- | --- | --- |
| O=C(N/C(=C\c1cccc([N+](=O)[O-])c1)c1nc2ccc([N+](=O)[O-])cc2[nH]1)c1ccccc1 | > 100 µM | > 100 µM | 60.7 µM | > 100 µM | > 100 µM | > 100 µM |  |  |  |  |  |  |  |  |  |  |  |  |
| Cc1cc(-c2cnn3c(NCC4CC(C)(O)C4)cc(Oc4cccnc4)nc23)ccc1C(=O)NC1CC1 (configuration not stated) | > 100 µM | > 100 µM | > 100 µM | > 100 µM | > 100 µM | > 100 µM | 3.49 µM | 1.06 µM | 1.25 µM | > 100 µM | 6.42 µM | > 100 µM | > 100 µM | 2.41 µM | > 100 µM | > 100 µM |  |  |
| Nc1nccc(-c2c(-c3ccc(F)cc3)ncn2C2CCC(O)CC2)n1 (configuration not stated) | > 25 µM | > 25 µM | 17.3 µM | > 25 µM | > 25 µM | > 25 µM | 4.03 µM | 7.1 µM | 24.4 µM | > 25 µM | 1.62 µM | 11.9 µM | 9.77 µM | 12.3 µM | 16.1 µM | > 25 µM | 13.3 µM | > 25 µM |
| CCc1ccccc1NC(=O)C1=C(C)NC(C)=C(C(=O)Nc2ccccc2CC)C1c1ccc2c(c1)OCO2 | > 100 µM | > 100 µM | 60.1 µM | > 100 µM | > 100 µM | > 100 µM |  |  |  | 47.8 µM |  |  |  |  |  | > 100 µM |  |  |
| COc1cc(Nc2nc3ccccc3nc2-c2cccs2)cc(OC)c1OC | > 100 µM | > 10 µM | 83.9 µM |  | > 100 µM | > 10 µM |  |  |  | > 100 µM |  |  |  |  |  | > 100 µM |  |  |
| CC/C=C\C[C@H](F)C/C=C1/C(=O)C=C[C@@H]1C/C=C\CCCC(=O)O | 18.8 µM | 12.2 µM |  | > 32.5 µM | 20.4 µM | 5.71 µM | 7.3 µM | 5.3 µM | 3.41 µM | 16.8 µM |  | 2.18 µM | 7.36 µM | 1.21 µM | 5.23 µM | 11.4 µM | 6.09 µM | 15.7 µM |
| C[C@@H]1OC(=O)N2CCCC(=C3SCCCS3)C12 (some centres not stated) | > 100 µM | > 100 µM | 84.9 µM | > 100 µM | > 100 µM | > 100 µM |  |  |  |  |  |  |  |  |  | > 100 µM |  |  |
| CS(=O)(=O)c1ccc(-n2nc(C(F)(F)F)cc2OC2CCCC2)cc1 | 79.4 µM | 81.7 µM | > 100 µM | 92.6 µM |  | > 100 µM | 25.7 µM | 29 µM | 24 µM | 59.3 µM | 50.7 µM | 29.1 µM |  | 43.8 µM | 40.1 µM | > 100 µM | 27.7 µM | > 100 µM |
| CCN(CC)C(c1ccc(N(C)C)cc1)C(c1ccc(N(C)C)cc1)N(CC)CC (configuration not stated) | > 73 µM | > 73 µM | 45.7 µM | > 73 µM | > 73 µM | > 73 µM |  |  |  | 38.3 µM |  |  |  |  |  | > 73 µM |  |  |
